Measured values from patent US10414774B2, “Compound useful for altering the levels of bile acids for the treatment of diabetes and cardiometabolc disease” (Merck Sharp & Dohme Corp., priority 2016, dated 2019).

molecular target: T1, Human CYP8B1 (Homo sapiens, UniProt Q9UNU6); assay: Human CYP8B1 Liver Microsome Assay; details: Human CYP8B1 IC50, human liver microsomes; substrate 7a-hydroxy-4-cholesten-3-one, NADPH; RapidFire MS detection of 7α,12α-dihydroxy-4-cholesten-3-one
T1 sequence (Q9UNU6 1-501): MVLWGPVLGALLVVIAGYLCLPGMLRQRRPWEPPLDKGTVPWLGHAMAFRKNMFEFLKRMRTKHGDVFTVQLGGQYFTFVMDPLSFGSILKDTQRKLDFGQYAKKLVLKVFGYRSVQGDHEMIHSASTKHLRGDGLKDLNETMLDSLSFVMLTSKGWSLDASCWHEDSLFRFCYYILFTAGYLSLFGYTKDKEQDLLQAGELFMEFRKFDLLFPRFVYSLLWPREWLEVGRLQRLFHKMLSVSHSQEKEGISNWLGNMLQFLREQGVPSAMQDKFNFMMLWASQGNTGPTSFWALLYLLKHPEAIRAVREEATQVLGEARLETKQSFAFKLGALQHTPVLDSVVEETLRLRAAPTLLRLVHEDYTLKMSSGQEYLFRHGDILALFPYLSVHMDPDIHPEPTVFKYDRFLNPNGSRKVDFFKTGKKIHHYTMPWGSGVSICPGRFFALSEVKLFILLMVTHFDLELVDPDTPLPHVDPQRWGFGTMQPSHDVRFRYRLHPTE

| SMILES | IC50 |
| --- | --- |
| CC1CN(c2c(C#N)c(C(F)F)nc3ccc(Cl)cc23)CCC1C(=O)N1CCn2c(nnc2C(F)(F)F)C1 (stereo not shown) [Example 57, 6-chloro-2-(difluoromethyl)-4-(3-methyl-4-{[3-(trifluoromethyl)-5,6-dihydro[1,2,4]triazolo[4,3-a]pyrazin-7(8H)-yl]carbonyl}piperidin-1-yl)quinoline-3-carbonitrile] | 69 nM |
| CO[C@@H]1CN(c2c(C#N)cnc3ccc(Cl)cc23)CC[C@H]1C(=O)N1CCn2c(nnc2C(F)(F)F)C1 [Example 72b, 6-chloro-4-[(3S,4R)-3-methoxy-4-{[3-(trifluoromethyl)-5,6-dihydro[1,2,4]triazolo[4,3-a]pyrazin-7(8H)-yl]carbonyl}piperidin-1-yl]quinoline-3-carbonitrile] | 441 nM |
| COc1ccc2ncc(C#N)c(N3CCC(C(=O)N4CCn5c(nnc5C(F)(F)F)C4)CC3)c2c1 [Example 46, 6-methoxy-4-(4-(3-(trifluoromethyl)-5,6,7,8-tetrahydro-[1,2,4]triazolo[4,3-a]pyrazine-7-carbonyl)piperidin-1-yl)quinoline-3-carbonitrile] | 68 nM |
| C[C@@H]1CN(c2c(C#N)cnc3c(Cl)c(F)ccc23)CC[C@@H]1C(=O)N1CCn2c(nnc2C(F)(F)F)C1 [Example 13, 8-chloro-7-fluoro-4-[(3S,4S)-3-methyl-4-{[3-(trifluoromethyl)-5,6-dihdyro[1,2,4]triazolo[4,3-a]pyrazin-7(8H)-yl]carbonyl}piperidin-1-yl]quinoline-3-carbonitrile] | 3.3 nM |
| Cc1nc2ccc(C(F)F)cc2c(N2CCC(C(=O)N3CCn4c(nnc4C(F)(F)F)C3)CC2)c1C#N [Example 55, 6-(difluoromethyl)-2-methyl-4-(4-(3-(trifluoromethyl)-5,6,7,8-tetrahydro-[1,2,4]triazolo[4,3-a]pyrazine-7-carbonyl)piperidin-1-yl)quinoline-3-carbonitrile] | 78 nM |
| N#Cc1cnc2ccc(Cl)cc2c1N1CCC(C(=O)N2CCc3cn[nH]c3C2)CC1 [Example 108, 6-chloro-4-[4-(1,4,5,7-tetrahydro-6H-pyrazolo[3,4-c]pyridin-6-ylcarbonyl)piperidin-1-yl]quinoline-3-carbonitrile] | 142 nM |
| C[C@@H]1CN(c2c(C#N)c(CO)nc3ccc(Cl)cc23)CC[C@@H]1C(=O)N1CCn2c(nnc2C(F)(F)F)C1 [Example 61, 6-chloro-2-(hydroxymethyl)-4-[(3S,4S)-3-methyl-4-{[3-(trifluoromethyl)-5,6-dihydro[1,2,4]triazolo[4,3-a]pyrazin-7(8H)-yl]carbonyl}piperidin-1-yl]quinoline-3-carbonitrile] | 4.5 nM |
| N#Cc1cnc2ccc(Cl)cc2c1N1CCN(C(=O)N2CCn3c(nnc3C(F)(F)F)C2)CC1 [Example 129, 6-chloro-4-(4-{[3-(trifluoromethyl)-5,6-dihydro[1,2,4]triazolo[4,3-a]pyrazin-7(8H)-yl]carbonyl}piperazin-1-yl)quinoline-3-carbonitrile] | 386 nM |
| N#Cc1cnc2ccc(Cl)cc2c1C1CCC(C(=O)N2CCn3c(nnc3C(F)(F)F)C2)CC1 (mixture of isomers) [Example 124, 6-chloro-4-(4-{[3-(trifluoromethyl)-5,6-dihydro[1,2,4]triazolo[4,3-a]pyrazin-7(8H)-yl]carbonyl}cyclohexyl)quinoline-3-carbonitrile] | 110 nM |
| CC1(C(=O)N2CCn3c(nnc3C(F)(F)F)C2)CCN(c2c(C#N)cnc3ccc(Cl)cc23)CC1 [Example 121, 6-chloro-4-(4-methyl-4-{[3-(trifluoromethyl)-5,6-dihydro[1,2,4]triazolo[4,3-a]pyrazin-7(8H)-yl]carbonyl}piperidin-1-yl)quinoline-3-carbonitrile] | 14 nM |
| CC(C)c1ncc2n1CCN(C(=O)C1CCN(c3c(C#N)cnc4ccc(Cl)cc34)CC1)C2 [Example 115, 6-chloro-4-(4-{[3-(propan-2-yl)-5,6-dihydroimidazo[1,5-a]pyrazin-7(8H)-yl]carbonyl}piperidin-1-yl)quinoline-3-carbonitrile] | 1670 nM |
| Cn1nc(C(F)(F)F)c2c1CN(C(=O)C1CCN(c3c(C#N)cnc4ccc(Cl)cc34)CC1)CC2 [Example 113, 6-chloro-4-(4-{[1-methyl-3-(trifluoromethyl)-1,4,5,7-tetrahydro-6H-pyrazolo[3,4-c]pyridin-6-yl]carbonyl}piperidin-1-yl)quinoline-3-carbonitrile] | 16.1 nM |
| N#Cc1cnc2ccc(Cl)cc2c1N1CCC(C(=O)N2CCn3cnnc3C2)CC1 [Example 110, 6-chloro-4-[4-(5,6-dihydro[1,2,4]triazolo[4,3-a]pyrazin-7(8H)-ylcarbonyl)piperidin-1-yl]quinoline-3-carbonitrile] | 181 nM |
| CCc1ncc2n1CCN(C(=O)C1CCN(c3c(C#N)cnc4ccc(Cl)cc34)CC1)C2 [Example 114, 6-chloro-4-{4-[(3-ethyl-5,6-dihydroimidazo[1,5-a]pyrazin-7(8H)-yl)carbonyl]piperidin-1-yl}quinoline-3-carbonitrile] | 1220 nM |

Compounds with a lower IC50, results first:

| IC50 | SMILES |
| --- | --- |
| 0.33 nM | C[C@@H]1CN(c2c(C#N)cnc3cc(OCC(F)F)ccc23)CC[C@@H]1C(=O)N1CCn2c(nnc2C(F)(F)F)C1 [Example 102, 7-(2,2-difluoroethoxy)-4-[(3S,4S)-3-methyl-4-{[3-(trifluoromethyl)-5,6-dihydro[1,2,4]triazolo[4,3-a]pyrazin-7(8H)-yl]carbonyl}piperidin-1-yl]quinoline-3-carbonitrile] |
| 2.9 nM | COc1ccc2nc(C)c(C#N)c(N3CC[C@H](C(=O)N4CCn5c(nnc5C(F)(F)F)C4)[C@H](C)C3)c2c1 [Example 32, 6-methoxy-2-methyl-4-[(3S,4S)-3-methyl-4-{[3-(trifluoromethyl)-5,6-dihydro[1,2,4]triazolo[4,3-a]pyrazin-7(8H)-yl]carbonyl}piperidin-1-yl]quinoline-3-carbonitrile] |
| 0.89 nM | C[C@@H]1CN(c2c(C#N)cnc3c(F)c(C4CC4)ccc23)CC[C@@H]1C(=O)N1CCn2c(nnc2C(F)(F)F)C1 [Example 67, 7-cyclopropyl-8-fluoro-4-[(3S,4S)-3-methyl-4-{[3-(trifluoromethyl)-5,6-dihydro[1,2,4]triazolo[4,3-a]pyrazin-7(8H)-yl]carbonyl}piperidin-1-yl]quinoline-3-carbonitrile] |
| 0.22 nM | C[C@@H]1CN(c2c(C#N)cnc3cc(OC(F)(F)F)ccc23)CC[C@@H]1C(=O)N1CCn2c(nnc2C(F)(F)F)C1 [Example 22, 4-[(3S,4S)-3-methyl-4-{[3-(trifluoromethyl)-5,6-dihydro[1,2,4]triazolo[4,3-a]pyrazin-7(8H)-yl]carbonyl}piperidin-1-yl]-7-(trifluoromethoxy)quinoline-3-carbonitrile] |
| 0.51 nM | COc1ccc2ncc(C#N)c(N3CC[C@H](C(=O)N4CCn5c(nnc5C(F)(F)F)C4)[C@H](C)C3)c2c1 [Example 9, 6-methoxy-4-[(3S,4S)-3-methyl-4-{[3-(trifluoromethyl)-5,6-dihydro[1,2,4]triazolo[4,3-a]pyrazin-7(8H)-yl]carbonyl}piperidin-1-yl]quinoline-3-carbonitrile] |
| 1.9 nM | C[C@@H]1CN(c2c(C#N)c[n+]([O-])c3ccc(Cl)cc23)CC[C@@H]1C(=O)N1CCn2c(nnc2C(F)(F)F)C1 [Example 123, 6-chloro-3-cyano-4-((3S,4S)-3-methyl-4-(3-(trifluoromethyl)-5,6,7,8-tetrahydro-[1,2,4]triazolo[4,3-a]pyrazine-7-carbonyl)piperidin-1-yl)quinoline 1-oxide] |
| 0.5 nM | Cc1nc2ccc(Cl)cc2c(N2CC[C@H](C(=O)N3CCn4c(nnc4C(F)(F)F)C3)[C@H](C)C2)c1C#N [Example 122, 6-chloro-2-methyl-4-((3S,4S)-3-methyl-4-(3-(trifluoromethyl)-5,6,7,8-tetrahydro-[1,2,4]triazolo[4,3-a]pyrazine-7-carbonyl)piperidin-1-yl)quinoline-3-carbonitrile] |
| 1.1 nM | C[C@@H]1CN(c2c(C#N)cnc3cc(C4CC4)ccc23)CC[C@@H]1C(=O)N1CCn2c(nnc2C(F)(F)F)C1 [Example 63] |
| 0.29 nM | N#Cc1cnc2ccc(Cl)cc2c1N1CC[C@H](C(=O)N2CCn3c(nnc3C(F)(F)F)C2)[C@H](C2CC2)C1 [Example 76c, 6-chloro-4-[(3S,4S)-3-cyclopropyl-4-{[3-(trifluoromethyl)-5,6-dihydro[1,2,4]triazolo[4,3-a]pyrazin-7(8H)-yl]carbonyl}piperidin-1-yl]quinoline-3-carbonitrile] |
| 2.1 nM | CC[C@@H]1CN(c2c(C#N)cnc3c(F)c(OC)ccc23)CC[C@@H]1C(=O)N1CCn2c(nnc2C(F)(F)F)C1 [Example 74b, 4-[(3S,4S)-3-ethyl-4-{[3-(trifluoromethyl)-5,6-dihydro[1,2,4]triazolo[4,3-a]pyrazin-7(8H)-yl]carbonyl}piperidin-1-yl]-8-fluoro-7-methoxyquinoline-3-carbonitrile] |
| 1.1 nM | C[C@@H]1CN(c2c(C#N)cnc3c(F)c(F)c(F)cc23)CC[C@@H]1C(=O)N1CCn2c(nnc2C(F)(F)F)C1 [Example 7, 6,7,8-trifluoro-4-[(3S,4S)-3-methyl-4-{[3-(trifluoromethyl)-5,6-dihydro[1,2,4]triazolo[4,3-a]pyrazin-7(8H)-yl]carbonyl}piperidin-1-yl]quinoline-3-carbonitrile] |
